Reference: US20040072775A1, “Enhancing the sensitivity of tumor cells to therapies” (priority 1994, published 2004)
pIC50: −log10 of the molar value.

Key:
Assay type in all cases: cell-based, human
T98G glioblastoma cells = experiment: clonogenic assay after one hour cisplatin exposure, parental cells; settings: clones counted 7 to 10 days later, read-out: concentration of cisplatin needed to achieve a 50% reduction in colony count
Method: 1). Cells. T98G glioblastoma cells (Mercer et al., “Negative growth regulation in a glioblastoma tumor cell line that conditionally expresses human wild-type p53.” (1990) Proc. Natl. Acad. Sci., USA, 87:6166-6170) were obtained from ATCC and cultured at 37° C. in 10% CO2 in Dulbecco's Modified Eagles Medium supplemented with 10% heat inactivated fetal bovine serum, gentamycin, nonessential amino acids, and sodium pyruvate. […] 5). Control parental T98G cells and T98 Gp53 cells which had been adapted 2 weeks to culture in the absence of the antibiotics G418 were plated in 24 well plates at about 2×10^4 cells per well. The next day they were exposed for one hour to varying concentrations of cisplatin (a chemotherapeutic agent) from 10 to 40 μM in increments of 10 μM. The cisplatin was removed after one hour and replaced with complete medium (DMEM+10% Fetal Bovine Serum) and cells were allowed to grow for 7 days. After 7 days, cells were counted or stained with crystal violet. In the latter case, absorbance at 540 nm is proportional to cell viability. For clonogenic assays, cells were replated following treatment in 6 well plates at 500-1000 cells per well. Clones were counted 7 to 10 days later by staining in 0.5% methylene blue, 70% ETOH. Colony counts from p53 transfectants and parental T98G glioblastoma cells were compared. […] Subsequent assays confirmed this increased sensitivity. […]

[1] = system: empty vector-transduced T98G cells; experiment: clonogenic assay after one hour cisplatin exposure, empty vector-transduced cells; settings: clones counted 7 to 10 days later, read-out: concentration of cisplatin needed to achieve a 50% reduction in colony count
T98 Gp53 cells = experiment: clonogenic/growth assay after one hour cisplatin exposure, cells transduced with wild-type p53 gene
Method: 1). Cells. T98G glioblastoma cells (Mercer et al., “Negative growth regulation in a glioblastoma tumor cell line that conditionally expresses human wild-type p53.” (1990) Proc. Natl. Acad. Sci., USA, 87:6166-6170) were obtained from ATCC and cultured at 37° C. in 10% CO2 in Dulbecco's Modified Eagles Medium supplemented with 10% heat inactivated fetal bovine serum, gentamycin, nonessential amino acids, and sodium pyruvate.
2). Plasmids. A plasmid (pLp53RNL) containing the wild-type p53 gene and the neomycin (G418) resistance gene was used. The plasmid pLp53RNL was kindly provided by Dr. Martin Haas (University of California, San Diego), and has been previously described (Cheng et al., “Suppression of acute lymphoblastic leukemia by the human wild-type p53 gene,” (1992) Cancer Res., 53:222-226). This plasmid carries the retroviral sequence Lp53RNL in which wild-type p53 expression is driven from the Moloney murine leukemia virus (MoMLV) LTR. The neomycin resistance gene is driven from the Rous Sarcoma Virus (RSV) promoter.
3). Transfections. The plasmid was introduced into T98G cells using cationic liposomes. […]
5). […] After 7 days, cells were counted or stained with crystal violet. In the latter case, absorbance at 540 nm is proportional to cell viability. […] Clones were counted 7 to 10 days later by staining in 0.5% methylene blue, 70% ETOH. […]

Compound `N.N.[Cl][Pt][Cl]` [cisplatin] has a pIC50 (T98G glioblastoma cells) of about 4.52, a pIC50 [1] of about 4.52 and a pIC50 (T98 Gp53 cells; cells transduced with wild-type p53 gene, one hour exposure, clones counted 7 to 10 days later, read-out: concentration of cisplatin needed to achieve a 50% reduction in colony count) of 4.70 to 4.82. For the same compound, the “sensitivity of T98 Gp53 cells to the effects of cisplatin compared with parental T98G cells (FIG. 1)” value (T98 Gp53 cells; cisplatin 10 to 40 μM, one hour) was “considerably more sensitive”.
